Experimental data taken from US8722733B2 (XenoPort, Inc., priority 2008, dated 2014).

Tests used:
[1] = Interconversion of the anhydrous and hydrated crystalline forms (XRPD); assay type: physicochemical
Protocol: X-ray powder diffraction (XRPD) analysis was performed using a PANalytical X'Pert Pro X-ray diffractometer. The X-ray source was Cu-kα1 with output voltage of 45 kV and current of 40 mA. The instrument employed para-focusing Bragg-Brentano geometry with incident divergence and scattering slits set at 1/16° and ⅛°, respectively. 0.04-mm radius soller slits were used for both the incident and diffracted beams to remove axial divergence. Powder samples (9-12 mg) were gently pressed onto a single crystal silicon sample holder to form a smooth surface, and samples were spun at 8 sec/revolution throughout the data acquisition process. The samples were scanned from 2° to 40° (2θ) with a step size of 0.017° (2θ°) and a scan speed of 0.067°/sec. Data acquisition was controlled and analyzed with X'Pert Data Collector Software (version 2.2d) and X'Pert Data Viewer (version 1.2c), respectively.
The anhydrous and hydrated crystalline forms of (2R)-2-phenylcarbonyloxypropyl (2S)-2-amino-3-(3,4-dihydroxyphenyl)propanoate mesylate interconvert depending on the water content of the environment.

[2] = Water sorption/desorption (dynamic vapor sorption); assay type: physicochemical; settings: 25° C., humidity cycle 5% RH to 95% RH at 10% RH intervals
Protocol: The hygroscopicity of (2R)-2-phenylcarbonyloxypropyl (2S)-2-amino-3-(3,4-dihydroxyphenyl)propanoate mesylate, hydrate was evaluated during one vapor sorption-desorption cycle using a VTI SGA-100 dynamic vapor sorption analyzer. (2R)-2-Phenylcarbonyloxypropyl (2S)-2-amino-3-(3,4-dihydroxyphenyl)propanoate mesylate, hydrate was first dried at 25° C. for 180 min under a nitrogen atmosphere. The material was considered equilibrated when the weight change during 2 min was less than 0.01%. To evaluate the vapor sorption-desorption at 25° C., the dried (2R)-2-phenylcarbonyloxypropyl (2S)-2-amino-3-(3,4-dihydroxyphenyl)propanoate mesylate, hydrate was exposed to a humidity cycle ramped (and deramped) from 5% RH to 95% RH at 10% RH intervals. At each humidity interval, the material was equilibrated as determined by a less than 0.01% weight change during 5 min.

Row | Structure (SMILES) | Crystal form after heating and then room temperature and humidity ([1]; after heating at 70° C., left at room temperature and humidity for 1 day) | Crystal form after heating ([1]; heated from 25° C. to 70° C. at 2° C./min, held at 70° C. for 15 min) | Crystal form after vacuum drying and then room temperature and humidity ([1]; vacuum dried overnight, then 25° C. and 40-60% RH for one day) | Hygroscopicity: vapor sorption-desorption [2] | Time for conversion to the hydrate in the presence of water vapor ([1]; about 25° C., humidity of at least about 60% RH)
1 | CS(=O)(=O)O.C[C@H](COC(=O)[C@@H](N)Cc1ccc(O)c(O)c1)OC(=O)c1ccccc1.O [(2R)-2-phenylcarbonyloxypropyl (2S)-2-amino-3-(3,4-dihydroxyphenyl)propanoate mesylate, hydrate] | reverts to crystalline (2R)-2-phenylcarbonyloxypropyl (2S)-2-amino-3-(3,4-dihydroxyphenyl)propanoate mesylate, hydrate | converted to a transient/metastable crystalline form | a mixture of crystalline anhydrous and hydrate forms | humidity-dependent reversible sorption and desorption of water vapor | –
2 | CS(=O)(=O)O.C[C@H](COC(=O)[C@@H](N)Cc1ccc(O)c(O)c1)OC(=O)c1ccccc1 [compound 1, (2R)-2-phenylcarbonyloxypropyl (2S)-2-amino-3-(3,4-dihydroxyphenyl)propanoate mesylate] | – | – | – | – | ≤ 24 h
